From PubChem BioAssay AID1918994 (Molecular Pharmacology Branch, DTP, NCI, 2023)

The compounds below were run on 292921-168-R-J2-PDC complex spheroid growth (assay: Anticancer human tumor 292921-168-R-J2-PDC patient-derived pancreatic carcinoma cell line growth inhibition [AhR]). Details: curve of first compound; second compound 0.1 µM.
Summary of the method: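 Spheroids combined tumor cells with HUVEC endothelial cells and human MSCs as stroma. AhR antagonists were paired with standard or investigational drugs, each dosed in half-log steps down from near clinical Cmax, or from 10 microM where Cmax was unknown.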
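Also: spheroids exposed to compounds for seven days after three days of growth.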

Compound	IC50
CC(C)c1c(-c2ccccc2)nc2c(C#N)c[nH]n2c1=O + CC(CO)NC(=O)c1cc(-c2ccc(Cl)cc2)nn(-c2cnn(C)c2)c1=O	> 10000 nM
CC[C@@]1(O)C(=O)OCc2c1cc1n(c2=O)Cc2cc3c(CN(C)C)c(O)ccc3nc2-1 + Cc1ccccc1N=Nc1ccc(NC(=O)c2ccnn2C)c(C)c1	22.9 nM
COc1cc(C2c3cc4c(cc3C(OC3OC5COC(C)OC5C(O)C3O)C3COC(=O)C23)OCO4)cc(OC)c1O (configuration not stated) + Cc1ccccc1N=Nc1ccc(NC(=O)c2ccnn2C)c(C)c1	396 nM
COc1cccc2c1C(=O)c1c(O)c3c(c(O)c1C2=O)CC(O)(C(=O)CO)CC3OC1CC(N)C(O)C(C)O1 (configuration not stated) + Cc1ccccc1N=Nc1ccc(NC(=O)c2ccnn2C)c(C)c1	< 31.6 nM
Nc1ccn(C2OC(CO)C(O)C2(F)F)c(=O)n1 (configuration not stated) + Cc1ccccc1N=Nc1ccc(NC(=O)c2ccnn2C)c(C)c1	< 31.6 nM
Nc1ncn(C2CC(O)C(CO)O2)c(=O)n1 (configuration not stated) + Cc1ccccc1N=Nc1ccc(NC(=O)c2ccnn2C)c(C)c1	> 1000 nM

Same assay, conditions: curve of first compound; second compound 0.316 µM

Compound	IC50
CC(C)c1c(-c2ccccc2)nc2c(C#N)c[nH]n2c1=O + CC(CO)NC(=O)c1cc(-c2ccc(Cl)cc2)nn(-c2cnn(C)c2)c1=O	> 10000 nM
CC[C@@]1(O)C(=O)OCc2c1cc1n(c2=O)Cc2cc3c(CN(C)C)c(O)ccc3nc2-1 + Cc1ccccc1N=Nc1ccc(NC(=O)c2ccnn2C)c(C)c1	18.6 nM
COc1cc(C2c3cc4c(cc3C(OC3OC5COC(C)OC5C(O)C3O)C3COC(=O)C23)OCO4)cc(OC)c1O (configuration not stated) + Cc1ccccc1N=Nc1ccc(NC(=O)c2ccnn2C)c(C)c1	409 nM
COc1cccc2c1C(=O)c1c(O)c3c(c(O)c1C2=O)CC(O)(C(=O)CO)CC3OC1CC(N)C(O)C(C)O1 (configuration not stated) + Cc1ccccc1N=Nc1ccc(NC(=O)c2ccnn2C)c(C)c1	< 31.6 nM
Nc1ccn(C2OC(CO)C(O)C2(F)F)c(=O)n1 (configuration not stated) + Cc1ccccc1N=Nc1ccc(NC(=O)c2ccnn2C)c(C)c1	< 31.6 nM
Nc1ncn(C2CC(O)C(CO)O2)c(=O)n1 (configuration not stated) + Cc1ccccc1N=Nc1ccc(NC(=O)c2ccnn2C)c(C)c1	> 1000 nM

Same assay, conditions: curve of first compound; second compound 1 µM

Compound	IC50
CC(C)c1c(-c2ccccc2)nc2c(C#N)c[nH]n2c1=O + CC(CO)NC(=O)c1cc(-c2ccc(Cl)cc2)nn(-c2cnn(C)c2)c1=O	> 10000 nM
CC[C@@]1(O)C(=O)OCc2c1cc1n(c2=O)Cc2cc3c(CN(C)C)c(O)ccc3nc2-1 + Cc1ccccc1N=Nc1ccc(NC(=O)c2ccnn2C)c(C)c1	18.5 nM
COc1cc(C2c3cc4c(cc3C(OC3OC5COC(C)OC5C(O)C3O)C3COC(=O)C23)OCO4)cc(OC)c1O (configuration not stated) + Cc1ccccc1N=Nc1ccc(NC(=O)c2ccnn2C)c(C)c1	355 nM
COc1cccc2c1C(=O)c1c(O)c3c(c(O)c1C2=O)CC(O)(C(=O)CO)CC3OC1CC(N)C(O)C(C)O1 (configuration not stated) + Cc1ccccc1N=Nc1ccc(NC(=O)c2ccnn2C)c(C)c1	< 31.6 nM
Nc1ccn(C2OC(CO)C(O)C2(F)F)c(=O)n1 (configuration not stated) + Cc1ccccc1N=Nc1ccc(NC(=O)c2ccnn2C)c(C)c1	< 31.6 nM
Nc1ncn(C2CC(O)C(CO)O2)c(=O)n1 (configuration not stated) + Cc1ccccc1N=Nc1ccc(NC(=O)c2ccnn2C)c(C)c1	> 1000 nM

Same assay, conditions: curve of first compound; second compound 3.16 µM

Compound	IC50
CC(C)c1c(-c2ccccc2)nc2c(C#N)c[nH]n2c1=O + CC(CO)NC(=O)c1cc(-c2ccc(Cl)cc2)nn(-c2cnn(C)c2)c1=O	> 10000 nM
CC[C@@]1(O)C(=O)OCc2c1cc1n(c2=O)Cc2cc3c(CN(C)C)c(O)ccc3nc2-1 + Cc1ccccc1N=Nc1ccc(NC(=O)c2ccnn2C)c(C)c1	13.9 nM
COc1cc(C2c3cc4c(cc3C(OC3OC5COC(C)OC5C(O)C3O)C3COC(=O)C23)OCO4)cc(OC)c1O (configuration not stated) + Cc1ccccc1N=Nc1ccc(NC(=O)c2ccnn2C)c(C)c1	181 nM
COc1cccc2c1C(=O)c1c(O)c3c(c(O)c1C2=O)CC(O)(C(=O)CO)CC3OC1CC(N)C(O)C(C)O1 (configuration not stated) + Cc1ccccc1N=Nc1ccc(NC(=O)c2ccnn2C)c(C)c1	< 31.6 nM
Nc1ccn(C2OC(CO)C(O)C2(F)F)c(=O)n1 (configuration not stated) + Cc1ccccc1N=Nc1ccc(NC(=O)c2ccnn2C)c(C)c1	< 31.6 nM
Nc1ncn(C2CC(O)C(CO)O2)c(=O)n1 (configuration not stated) + Cc1ccccc1N=Nc1ccc(NC(=O)c2ccnn2C)c(C)c1	> 1000 nM

Same assay, conditions: curve of first compound; second compound 10 µM

Compound	IC50
CC(C)c1c(-c2ccccc2)nc2c(C#N)c[nH]n2c1=O + CC(CO)NC(=O)c1cc(-c2ccc(Cl)cc2)nn(-c2cnn(C)c2)c1=O	> 10000 nM
CC[C@@]1(O)C(=O)OCc2c1cc1n(c2=O)Cc2cc3c(CN(C)C)c(O)ccc3nc2-1 + Cc1ccccc1N=Nc1ccc(NC(=O)c2ccnn2C)c(C)c1	12.7 nM
COc1cc(C2c3cc4c(cc3C(OC3OC5COC(C)OC5C(O)C3O)C3COC(=O)C23)OCO4)cc(OC)c1O (configuration not stated) + Cc1ccccc1N=Nc1ccc(NC(=O)c2ccnn2C)c(C)c1	105 nM
COc1cccc2c1C(=O)c1c(O)c3c(c(O)c1C2=O)CC(O)(C(=O)CO)CC3OC1CC(N)C(O)C(C)O1 (configuration not stated) + Cc1ccccc1N=Nc1ccc(NC(=O)c2ccnn2C)c(C)c1	< 31.6 nM
Nc1ccn(C2OC(CO)C(O)C2(F)F)c(=O)n1 (configuration not stated) + Cc1ccccc1N=Nc1ccc(NC(=O)c2ccnn2C)c(C)c1	< 31.6 nM
Nc1ncn(C2CC(O)C(CO)O2)c(=O)n1 (configuration not stated) + Cc1ccccc1N=Nc1ccc(NC(=O)c2ccnn2C)c(C)c1	> 1000 nM

Same assay, conditions: second compound 0.1 µM; first compound 0.000316 µM; stronger effect = lower value

Compound	viability, T/C
CC[C@@]1(O)C(=O)OCc2c1cc1n(c2=O)Cc2cc3c(CN(C)C)c(O)ccc3nc2-1 + Cc1ccccc1N=Nc1ccc(NC(=O)c2ccnn2C)c(C)c1	90.9%

Same assay, conditions: second compound 0.1 µM; first compound 0.001 µM; stronger effect = lower value

Compound	viability, T/C
CC[C@@]1(O)C(=O)OCc2c1cc1n(c2=O)Cc2cc3c(CN(C)C)c(O)ccc3nc2-1 + Cc1ccccc1N=Nc1ccc(NC(=O)c2ccnn2C)c(C)c1	90.8%

Same assay, conditions: second compound 0.1 µM; first compound 0.00316 µM; stronger effect = lower value

Compound	viability, T/C
CC[C@@]1(O)C(=O)OCc2c1cc1n(c2=O)Cc2cc3c(CN(C)C)c(O)ccc3nc2-1 + Cc1ccccc1N=Nc1ccc(NC(=O)c2ccnn2C)c(C)c1	82.5%
Nc1ncn(C2CC(O)C(CO)O2)c(=O)n1 (configuration not stated) + Cc1ccccc1N=Nc1ccc(NC(=O)c2ccnn2C)c(C)c1	90.2%

Same assay, conditions: second compound 0.1 µM; first compound 0.01 µM; stronger effect = lower value

Compound	viability, T/C
CC[C@@]1(O)C(=O)OCc2c1cc1n(c2=O)Cc2cc3c(CN(C)C)c(O)ccc3nc2-1 + Cc1ccccc1N=Nc1ccc(NC(=O)c2ccnn2C)c(C)c1	79.5%
Nc1ncn(C2CC(O)C(CO)O2)c(=O)n1 (configuration not stated) + Cc1ccccc1N=Nc1ccc(NC(=O)c2ccnn2C)c(C)c1	94.2%

Same assay, conditions: second compound 0.1 µM; first compound 0.0316 µM; stronger effect = lower value

Compound	viability, T/C
CC(C)c1c(-c2ccccc2)nc2c(C#N)c[nH]n2c1=O + CC(CO)NC(=O)c1cc(-c2ccc(Cl)cc2)nn(-c2cnn(C)c2)c1=O	104%
CC[C@@]1(O)C(=O)OCc2c1cc1n(c2=O)Cc2cc3c(CN(C)C)c(O)ccc3nc2-1 + Cc1ccccc1N=Nc1ccc(NC(=O)c2ccnn2C)c(C)c1	38.7%
COc1cc(C2c3cc4c(cc3C(OC3OC5COC(C)OC5C(O)C3O)C3COC(=O)C23)OCO4)cc(OC)c1O (configuration not stated) + Cc1ccccc1N=Nc1ccc(NC(=O)c2ccnn2C)c(C)c1	92.5%
COc1cccc2c1C(=O)c1c(O)c3c(c(O)c1C2=O)CC(O)(C(=O)CO)CC3OC1CC(N)C(O)C(C)O1 (configuration not stated) + Cc1ccccc1N=Nc1ccc(NC(=O)c2ccnn2C)c(C)c1	24.3%
Nc1ccn(C2OC(CO)C(O)C2(F)F)c(=O)n1 (configuration not stated) + Cc1ccccc1N=Nc1ccc(NC(=O)c2ccnn2C)c(C)c1	8.08%
Nc1ncn(C2CC(O)C(CO)O2)c(=O)n1 (configuration not stated) + Cc1ccccc1N=Nc1ccc(NC(=O)c2ccnn2C)c(C)c1	101%

Same assay, conditions: second compound 0.1 µM; first compound 0.1 µM; stronger effect = lower value

Compound	viability, T/C
CC(C)c1c(-c2ccccc2)nc2c(C#N)c[nH]n2c1=O + CC(CO)NC(=O)c1cc(-c2ccc(Cl)cc2)nn(-c2cnn(C)c2)c1=O	105%
CC[C@@]1(O)C(=O)OCc2c1cc1n(c2=O)Cc2cc3c(CN(C)C)c(O)ccc3nc2-1 + Cc1ccccc1N=Nc1ccc(NC(=O)c2ccnn2C)c(C)c1	16.8%
COc1cc(C2c3cc4c(cc3C(OC3OC5COC(C)OC5C(O)C3O)C3COC(=O)C23)OCO4)cc(OC)c1O (configuration not stated) + Cc1ccccc1N=Nc1ccc(NC(=O)c2ccnn2C)c(C)c1	85.8%
COc1cccc2c1C(=O)c1c(O)c3c(c(O)c1C2=O)CC(O)(C(=O)CO)CC3OC1CC(N)C(O)C(C)O1 (configuration not stated) + Cc1ccccc1N=Nc1ccc(NC(=O)c2ccnn2C)c(C)c1	17%
Nc1ccn(C2OC(CO)C(O)C2(F)F)c(=O)n1 (configuration not stated) + Cc1ccccc1N=Nc1ccc(NC(=O)c2ccnn2C)c(C)c1	7.37%
Nc1ncn(C2CC(O)C(CO)O2)c(=O)n1 (configuration not stated) + Cc1ccccc1N=Nc1ccc(NC(=O)c2ccnn2C)c(C)c1	86%

Same assay, conditions: second compound 0.1 µM; first compound 0.316 µM; stronger effect = lower value

Compound	viability, T/C
CC(C)c1c(-c2ccccc2)nc2c(C#N)c[nH]n2c1=O + CC(CO)NC(=O)c1cc(-c2ccc(Cl)cc2)nn(-c2cnn(C)c2)c1=O	104%
COc1cc(C2c3cc4c(cc3C(OC3OC5COC(C)OC5C(O)C3O)C3COC(=O)C23)OCO4)cc(OC)c1O (configuration not stated) + Cc1ccccc1N=Nc1ccc(NC(=O)c2ccnn2C)c(C)c1	51.6%
COc1cccc2c1C(=O)c1c(O)c3c(c(O)c1C2=O)CC(O)(C(=O)CO)CC3OC1CC(N)C(O)C(C)O1 (configuration not stated) + Cc1ccccc1N=Nc1ccc(NC(=O)c2ccnn2C)c(C)c1	5.13%
Nc1ccn(C2OC(CO)C(O)C2(F)F)c(=O)n1 (configuration not stated) + Cc1ccccc1N=Nc1ccc(NC(=O)c2ccnn2C)c(C)c1	8.63%
